This test concerns P388 leukemia ip, CD2F1 mice, survival T/C. Nature of the test: NCI In Vivo Anticancer Drug Screen. Data for tumor model P388 Leukemia (intraperitoneal) in CD2F1 (CDF1) mice. The note with it: endpoint: median survival time, higher = longer survival. In short, it runs like this: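 Mice carrying the transplanted tumor received test compound or vehicle. Survival was recorded in each group, and the value is the treated-group measurement divided by that of the vehicle-treated control group.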

Where [1] appears, read: dose: 50.0 mg/kg/injection, schedule: Q01DX005 (ip), vehicle: saline with Tween-80.
Setting [2] is: dose: 100.0 mg/kg/injection, schedule: Q01DX005 (ip), vehicle: saline with Tween-80.
Where [3] appears, read: dose: 200.0 mg/kg/injection, schedule: Q01DX005 (ip), vehicle: saline with Tween-80.
[4] abbreviates: dose: 50.0 mg/kg/injection, schedule: Q01DX009 (ip), vehicle: saline with Tween-80.
Where [5] appears, read: dose: 100.0 mg/kg/injection, schedule: Q01DX009 (ip), vehicle: saline with Tween-80.
Setting [6] is: dose: 6.25 mg/kg/injection, schedule: Q01DX009 (ip), vehicle: saline with Tween-80.
Where [7] appears, read: dose: 12.5 mg/kg/injection, schedule: Q01DX009 (ip), vehicle: saline with Tween-80.
[8] abbreviates: dose: 25.0 mg/kg/injection, schedule: Q01DX009 (ip), vehicle: saline with Tween-80.

SMILES strings stand for the structures. Several values for one entry are separate records, joined by “and”; a condition that tells them apart may be missing. Equal values may be shown once. Inconclusive results and toxic doses are left out.

With `O=C(c1cccnc1)N(Cc1ccccc1)C(=O)c1cccnc1`, the T/C (dose: 25.0 mg/kg/injection, schedule: Q01DX001 (ip), vehicle: saline with Tween-80) is 99 % of control; the T/C (dose: 50.0 mg/kg/injection, schedule: Q01DX001 (ip), vehicle: saline with Tween-80) is 106 % of control; the T/C (dose: 100.0 mg/kg/injection, schedule: Q01DX001 (ip), vehicle: saline with Tween-80) is 100 % of control; the T/C (dose: 200.0 mg/kg/injection, schedule: Q01DX001 (ip), vehicle: saline with Tween-80) was 106 % of control.

Turning to `Cc1c([N+](=O)[O-])c(=O)oc2c1ccc1occc(=O)c12`, the T/C runs as follows: under setting [1], 96 % of control; under setting [2], 89 % of control; under setting [3], 90 % of control.

Take `COc1cc(C(C)c2cc3c(cc2OCC(C)=O)OCO3)cc(OC)c1OC` (stereo not given): the T/C (dose: 60.0 mg/kg/injection, schedule: Q01DX005 (ip), vehicle: saline with Tween-80) is 105 % of control; the T/C (dose: 120.0 mg/kg/injection, schedule: Q01DX005 (ip), vehicle: saline with Tween-80) was 97 % of control; the T/C (dose: 240.0 mg/kg/injection, schedule: Q01DX005 (ip), vehicle: saline with Tween-80) was 106 % of control.

`CN(C)CCCNc1cccc2c1C(=O)c1cccc(NCCCN(C)C)c1C2=O`: the T/C is 105 % of control (dose: 4.0 mg/kg/injection, schedule: Q01DX009 (ip), vehicle: acid diluted with saline); 101 % of control (dose: 7.5 mg/kg/injection, schedule: Q01DX009 (ip), vehicle: saline); 105 % of control (dose: 8.0 mg/kg/injection, schedule: Q01DX009 (ip), vehicle: acid diluted with saline); 108 % of control (dose: 12.5 mg/kg/injection, schedule: Q01DX005 (ip), vehicle: water); 100 % of control (dose: 12.5 mg/kg/injection, schedule: Q01DX009 (ip), vehicle: water); 108 % of control (dose: 15.0 mg/kg/injection, schedule: Q01DX009 (ip), vehicle: saline). Also, the T/C is 104 % of control (dose: 16.0 mg/kg/injection, schedule: Q01DX009 (ip), vehicle: acid diluted with saline); 114 % of control (dose: 25.0 mg/kg/injection, schedule: Q01DX005 (ip), vehicle: water); 100 % of control (dose: 25.0 mg/kg/injection, schedule: Q01DX009 (ip), vehicle: water); 100 % of control (dose: 30.0 mg/kg/injection, schedule: Q01DX009 (ip), vehicle: saline); 104 % of control (dose: 32.0 mg/kg/injection, schedule: Q01DX009 (ip), vehicle: acid diluted with saline); 102 % of control (dose: 50.0 mg/kg/injection, schedule: Q01DX005 (ip), vehicle: water). Further, the T/C is, setting by setting: (dose: 50.0 mg/kg/injection, schedule: Q01DX009 (ip), vehicle: water) 100 % of control; (dose: 60.0 mg/kg/injection, schedule: Q01DX009 (ip), vehicle: saline) 102 % of control; (dose: 64.0 mg/kg/injection, schedule: Q01DX009 (ip), vehicle: acid diluted with saline) 102 % of control.

On to `CC1=NN(C(=O)c2ccncc2)C(=O)C1N=Nc1ccc(S(=O)(=O)Nc2ncccn2)cc1` (stereo not given), for which the T/C was 95 % of control under setting [4]; 91 % of control under setting [5]; 92 % of control (dose: 200.0 mg/kg/injection, schedule: Q01DX009 (ip), vehicle: saline with Tween-80).

As for `CCCCCCC(=O)/C=C/c1ccc(OC(=O)c2ccc(OC)cc2)cc1`, the T/C under setting [6] is 100 % of control; the T/C under setting [7] is 105 % of control; the T/C under setting [8] is 98 % of control; the T/C under setting [4] is 91 % of control; the T/C under setting [5] is 89 % of control.

Take `Clc1cc2c(nn1)-c1ccccc1C2`: the T/C is 100 % of control under setting [1], 105 % of control under setting [2] and 100 % of control under setting [3].

For the molecule `COC(=O)c1nc(N)nc(C(=O)OC)c1C(=O)c1ccc2ccccc2c1`, the T/C was 102 % of control (dose: 60.0 mg/kg/injection, schedule: Q01DX005 (ip), vehicle: Klucel (hydroxypropylcellulose) (HPC)) and 101 % of control (dose: 120.0 mg/kg/injection, schedule: Q01DX005 (ip), vehicle: Klucel (hydroxypropylcellulose) (HPC)).

Take `CNC(=O)OCc1c(COC(=O)NC)c(-c2ccc(SC)cc2)n(C)c1C`: the T/C is, setting by setting: (dose: 3.13 mg/kg/injection, schedule: Q01DX009 (ip), vehicle: distilled water + Tween-80) 187 % of control; (dose: 12.5 mg/kg/injection, schedule: Q01DX009 (ip), vehicle: distilled water + Tween-80) 152 % of control; (dose: 50.0 mg/kg/injection, schedule: Q01DX009 (ip), vehicle: distilled water + Tween-80) 150 % of control.

For `CONC(=O)N/N=C/c1c(CO)cnc(C)c1O`, the T/C (dose: 12.5 mg/kg/injection, schedule: Q01DX005 (ip), vehicle: Klucel (hydroxypropylcellulose) (HPC)) is 104 % of control; the T/C (dose: 25.0 mg/kg/injection, schedule: Q01DX005 (ip), vehicle: Klucel (hydroxypropylcellulose) (HPC)) was 100 % of control; the T/C (dose: 50.0 mg/kg/injection, schedule: Q01DX005 (ip), vehicle: Klucel (hydroxypropylcellulose) (HPC)) was 94 % of control.

Turning to `O=C(CCCN1CCC(C(=O)c2ccc(F)cc2)CC1)c1ccc(F)cc1`, the T/C is, setting by setting: (dose: 1.56 mg/kg/injection, schedule: Q01DX009 (ip), vehicle: saline) 92 % of control; (dose: 3.13 mg/kg/injection, schedule: Q01DX009 (ip), vehicle: saline) 93 % of control; under setting [6], 100 % of control; (dose: 6.25 mg/kg/injection, schedule: Q01DX009 (ip), vehicle: saline) 104 % of control; under setting [7], 100 % of control; under setting [8], 110 % of control. Also, the T/C under setting [4] was 118 % of control.

As for `c1ccc([I+]c2ccccc2)cc1`, the T/C is, setting by setting: (dose: 0.65 mg/kg/injection, schedule: Q01DX009 (ip), vehicle: saline) 95 % of control; (dose: 1.25 mg/kg/injection, schedule: Q01DX009 (ip), vehicle: saline sonified) 100 % of control; (dose: 1.3 mg/kg/injection, schedule: Q01DX009 (ip), vehicle: saline) 90 % of control; (dose: 1.56 mg/kg/injection, schedule: Q01DX009 (ip), vehicle: saline with Tween-80) 103 % of control; (dose: 2.5 mg/kg/injection, schedule: Q01DX009 (ip), vehicle: saline sonified) 118 % of control; (dose: 2.5 mg/kg/injection, schedule: Q01DX009 (ip), vehicle: saline) 109 % of control. Besides, the T/C runs as follows: (dose: 2.6 mg/kg/injection, schedule: Q01DX009 (ip), vehicle: saline with Tween-80) 106 % of control; (dose: 3.13 mg/kg/injection, schedule: Q01DX009 (ip), vehicle: saline sonified) 100 % of control; (dose: 3.13 mg/kg/injection, schedule: Q01DX009 (ip), vehicle: saline with Tween-80) 108 % of control; (dose: 3.13 mg/kg/injection, schedule: Q04DX003 (ip), vehicle: saline) 100 % of control; (dose: 4.0 mg/kg/injection, schedule: Q01DX009 (ip), vehicle: saline with Tween-80) 113 % of control; (dose: 6.0 mg/kg/injection, schedule: Q01DX009 (ip), vehicle: saline with Tween-80) 113 % of control. The T/C is 122 % of control and 91 % of control under setting [6]; 118 % of control (dose: 6.25 mg/kg/injection, schedule: Q04DX003 (ip), vehicle: saline); 118 % of control (dose: 12.5 mg/kg/injection, schedule: Q04DX003 (ip), vehicle: saline).

With `O=C(O)c1cccc(C(=O)O)c1Sc1ccc(Cl)cc1`, the T/C by setting is: (dose: 100.0 mg/kg/injection, schedule: Q04DX002 (ip), vehicle: saline with Tween-80) 100 % of control; (dose: 200.0 mg/kg/injection, schedule: Q04DX002 (ip), vehicle: saline with Tween-80) 105 % of control; (dose: 400.0 mg/kg/injection, schedule: Q04DX002 (ip), vehicle: saline with Tween-80) 100 % of control.

As to `O=C(O)c1ncnn1-c1ccccc1`, the T/C reads like this: (dose: 60.0 mg/kg/injection, schedule: Q01DX005 (ip), vehicle: saline) 91 % of control; (dose: 120.0 mg/kg/injection, schedule: Q01DX005 (ip), vehicle: saline) 96 % of control; (dose: 240.0 mg/kg/injection, schedule: Q01DX005 (ip), vehicle: saline) 99 % of control.

For the molecule `Cc1cc(CC(C)O)n[nH]1` (stereo not given), the T/C (dose: 50.0 mg/kg/injection, schedule: Q01DX009 (ip), vehicle: Klucel (hydroxypropylcellulose) (HPC)) is 109 % of control; the T/C (dose: 100.0 mg/kg/injection, schedule: Q01DX009 (ip), vehicle: Klucel (hydroxypropylcellulose) (HPC)) is 106 % of control; the T/C (dose: 200.0 mg/kg/injection, schedule: Q01DX009 (ip), vehicle: Klucel (hydroxypropylcellulose) (HPC)) is 102 % of control.

The record behind these values is PubChem BioAssay AID330 (DTP/NCI, 2004).
